The experiment concerns MKs. Put plainly: Shear-induced proPLT production and PLT release by MKs in the microfluidic device (live-cell microscopy). It is filed as cell-based, mouse. As to conditions: for PLT release: under both static and physiological shear conditions; for shear-induced proPLT production: physiological shear. The protocol:
Devices were coated with a 0.22 μm filtered 10% BSA solution (Millipore, Billerica, Mass.) for 30 minutes to prevent direct cell contact with glass. Primary MKs and media were infused in the first inlet 118 and second inlet 122, respectively, at a rate of 12.5 μL/hour using a two-syringe microfluidic pump (Harvard Apparatus, Holliston, Mass.). When the first outlet 120 is closed, both input solutions are redirected toward the second outlet 124 causing primary MKs to trap.
For shear cultures, MKs were loaded onto ‘naked’ microfluidic devices (only BSA-coated), and the infusion rate was doubled incrementally from 12.5 μL/hr to 200 μL/hr over a 2 hour period. For static cultures, isolated MKs were pipetted into chambers formed by mounting a glass coverslide coated with 3% BSA onto a […] with a 1 cm hole and cultured for 24 hours. Both static and shear cultures were maintained at 37 degrees C. and 5 percent CO2 and examined on a Zeiss Axiovert 200 (Carl Zeiss, Thornwood, N.Y.) equipped with 10× (numerical aperature, 0.30) Plan-Neofluar air objective. Differential interference contrast (DIC) images were obtained using CCD camera (Hamamatsu Photonics, Boston, Mass.) at either 2 second (shear cultures) or 20 minute (static cultures) intervals. Images were analyzed using the Metamorph version 7.7.2.0 image analysis software (Molecular Devices, Sunnyvale, Calif., USA) and ImageJ software version 1.47p. ProPLT extension rates were determined manually for over 200 MKs from at least three independent samples. For PLT spreading experiments, effluent was collected from microfluidic devices after 2 hours and pipetted into uncoated static culture chambers, described above. PLTs were permitted to contact glass by gravity sedimentation and spreading was captured at 5 second intervals over a 5 minute period.
In vivo BM MKs extend proPLTs in the direction of blood flow and release PLTs, proPLTs, large cytoplasmic fragments (prePLTs), and even whole MKs into sinusoidal blood vessels which may be trapping in the pulmonary microvascular bed, or otherwise maturing in the circulation. To determine the effect of physiological shear on PLT production, mouse fetal liver culture-derived (mFLC) MKs were isolated on culture day 4 and characterized by size and ploidy before being infused into the microfluidic device (shown in FIG. 3A).
While shear rates were kept constant, proPLT extension rates varied at different positions along the shaft, predictive of a regulated cytoskeletal driven mechanism of proPLT elongation (shown in FIG. 4C). […]

The values that follow come from patent publication US11396016B2, “System and method for a biomimetic fluid processing” (The Brigham and Women's Hospital, Inc., priority 2013, dated 2022).

As to `CCCCCC[C@@H]([C@@H](C)O)n1cnc2c(N)ncnc21` (racemic) [EHNA], the PLT release result (1 mM EHNA) is “inhibited”. The “shear-induced proPLT production” value (MKs incubated with 1 mM EHNA prior to infusion in microfluidic device) is “inhibit”.

Take `C/C1=C\[C@H](C)C[C@H](C)OC(=O)C[C@H](c2ccc(O)cc2)NC(=O)[C@@H](Cc2c(Br)[nH]c3ccccc23)N(C)C(=O)[C@H](C)NC(=O)[C@@H](C)C1` [Jas, Jasplankinolide]: for the setting “5 μM Jas”, the PLT release result is given as “inhibited”. The “shear-induced proPLT production” value (MKs incubated with 5 μM Jas prior to infusion in microfluidic device) is “inhibit”.
